The source of these data is paper PMC6199744, “Development of Chemical Proteomics for the Folateome and Analysis of the Kinetoplastid Folateome” (ACS Infectious Diseases, 2018).

Read-outs that look alike come from different tables or passages of the source.

The target of assay [1] is T. brucei lysate proteins (Trypanosoma brucei brucei, UniProt P23799). In kind it is binding. Conditions: for fold change - vehicle control: protein PUTATIVE ADENYLATE CYCLASE […] (ESAG8) (CZT00028390.1).
Assay [2] has as its target T1, HeLa cell extract proteins (Homo sapiens, UniProt Q15370).
T1 construct: endogenous in cells; host or cells: HeLa cell extract
In kind it is binding.

Assay [3] has as its target T2, HeLa cell extract proteins (Homo sapiens, UniProt Q9H4A4).
T2 construct: endogenous in cells; host or cells: HeLa cell extract
In kind it is binding.

Assay [4] has as its target T3, HeLa cell extract proteins (Homo sapiens, UniProt O00462).
T3 construct: endogenous in cells; host or cells: HeLa cell extract
T3 sequence (O00462 18-879): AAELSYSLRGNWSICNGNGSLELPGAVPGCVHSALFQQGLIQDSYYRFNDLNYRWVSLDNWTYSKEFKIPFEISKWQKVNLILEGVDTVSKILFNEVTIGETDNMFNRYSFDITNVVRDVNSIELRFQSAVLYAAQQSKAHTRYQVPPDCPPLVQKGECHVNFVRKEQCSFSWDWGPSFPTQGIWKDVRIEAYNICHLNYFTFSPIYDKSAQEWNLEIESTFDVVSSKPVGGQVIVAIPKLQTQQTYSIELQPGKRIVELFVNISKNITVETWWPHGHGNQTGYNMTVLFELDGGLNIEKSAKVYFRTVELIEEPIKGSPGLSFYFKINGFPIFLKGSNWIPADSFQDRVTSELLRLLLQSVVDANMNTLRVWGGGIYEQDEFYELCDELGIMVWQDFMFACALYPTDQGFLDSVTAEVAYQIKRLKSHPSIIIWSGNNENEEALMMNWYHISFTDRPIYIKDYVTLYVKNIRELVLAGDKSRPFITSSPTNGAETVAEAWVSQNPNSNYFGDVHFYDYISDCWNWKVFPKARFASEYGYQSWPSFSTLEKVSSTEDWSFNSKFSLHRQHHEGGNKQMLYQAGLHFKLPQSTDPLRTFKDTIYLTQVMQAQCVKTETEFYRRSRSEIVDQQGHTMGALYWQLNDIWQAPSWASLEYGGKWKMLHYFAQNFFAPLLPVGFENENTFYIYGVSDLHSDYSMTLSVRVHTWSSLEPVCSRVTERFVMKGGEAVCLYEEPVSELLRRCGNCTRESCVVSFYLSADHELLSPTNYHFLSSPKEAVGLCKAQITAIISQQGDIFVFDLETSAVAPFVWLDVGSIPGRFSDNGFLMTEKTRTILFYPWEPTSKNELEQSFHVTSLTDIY
It is filed as binding.

Assay [5] addresses T4, HeLa cell extract proteins (Homo sapiens, UniProt Q93099).
T4 construct: endogenous in cells; host or cells: HeLa cell extract
T4 sequence (Q93099 1-445): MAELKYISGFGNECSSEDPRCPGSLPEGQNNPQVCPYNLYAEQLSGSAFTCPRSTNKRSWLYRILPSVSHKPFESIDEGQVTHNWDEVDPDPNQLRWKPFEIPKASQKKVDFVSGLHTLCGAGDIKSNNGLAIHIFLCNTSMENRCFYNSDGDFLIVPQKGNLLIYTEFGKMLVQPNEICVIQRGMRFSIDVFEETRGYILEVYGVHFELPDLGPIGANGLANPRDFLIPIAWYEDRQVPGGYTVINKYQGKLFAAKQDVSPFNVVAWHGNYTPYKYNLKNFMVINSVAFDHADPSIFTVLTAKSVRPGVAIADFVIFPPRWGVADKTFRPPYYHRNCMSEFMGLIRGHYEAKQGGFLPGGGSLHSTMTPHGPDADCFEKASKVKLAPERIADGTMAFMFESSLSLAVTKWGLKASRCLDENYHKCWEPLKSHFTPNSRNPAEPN
It is filed as binding.

For a further assay, the system named is TB927.8.6460. The experiment in a line: Multitargeted bead mixture competition. In kind it is binding, T. brucei. Conditions: for fold change: CONSERVED, vehicle control = 1.
Another assay has as its target DHFR-TS (Leishmania major, UniProt P07382). The experiment in a line: biochemical. Conditions: competing free ligand 100 μM; bead = immobilized compound of the row; L. major lysate; read-out: % Inhibition of protein binding to bead, DHFR-TS, L. major.
Assay [6] deals with T5, HeLa cell extract proteins (Homo sapiens, UniProt Q8WUK0).
T5 construct: endogenous in cells; host or cells: HeLa cell extract
T5 sequence (Q8WUK0 28-201): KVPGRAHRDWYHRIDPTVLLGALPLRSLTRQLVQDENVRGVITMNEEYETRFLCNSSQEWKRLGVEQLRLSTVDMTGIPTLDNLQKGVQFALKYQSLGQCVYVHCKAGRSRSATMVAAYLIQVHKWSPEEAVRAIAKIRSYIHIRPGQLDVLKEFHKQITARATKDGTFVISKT
In kind it is binding. The note with it: captured protein PTPMT1; HeLa.

Assay [7] has as its target T6, HeLa cell extract proteins (Homo sapiens, UniProt P17655).
T6 construct: endogenous in cells; host or cells: HeLa cell extract
T6 sequence (P17655 1-700): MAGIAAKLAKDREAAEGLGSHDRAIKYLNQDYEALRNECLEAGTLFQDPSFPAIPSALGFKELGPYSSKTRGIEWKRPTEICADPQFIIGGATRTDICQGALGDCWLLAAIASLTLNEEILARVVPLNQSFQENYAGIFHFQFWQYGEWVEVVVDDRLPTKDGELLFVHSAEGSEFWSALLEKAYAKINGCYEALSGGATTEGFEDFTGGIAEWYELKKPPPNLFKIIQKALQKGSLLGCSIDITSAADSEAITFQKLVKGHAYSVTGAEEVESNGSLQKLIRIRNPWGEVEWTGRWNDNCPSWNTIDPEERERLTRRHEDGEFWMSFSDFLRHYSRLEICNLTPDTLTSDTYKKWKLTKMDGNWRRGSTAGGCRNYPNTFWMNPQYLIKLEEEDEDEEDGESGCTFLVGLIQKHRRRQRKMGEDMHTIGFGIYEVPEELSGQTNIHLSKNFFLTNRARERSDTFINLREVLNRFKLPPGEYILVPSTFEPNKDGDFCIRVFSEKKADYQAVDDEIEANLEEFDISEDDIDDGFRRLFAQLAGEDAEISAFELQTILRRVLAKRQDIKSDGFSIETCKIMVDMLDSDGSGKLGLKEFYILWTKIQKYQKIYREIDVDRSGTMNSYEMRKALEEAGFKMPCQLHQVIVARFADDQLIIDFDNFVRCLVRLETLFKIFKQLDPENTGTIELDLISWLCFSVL
It is filed as binding. Conditions: protein CAPN2; HeLa.

In assay [8] the target is T7, HeLa cell extract proteins (Homo sapiens, UniProt P46782).
T7 construct: endogenous in cells; host or cells: HeLa cell extract
In kind it is binding. The note with it: protein RPS5; HeLa.

The target of assay [9] is T8, HeLa cell extract proteins (Homo sapiens, UniProt O60684).
T8 construct: endogenous in cells; host or cells: HeLa cell extract
In kind it is binding. Conditions: protein KPNA6; HeLa.

In the next assay the test system is TB11.03.0290. The assay can be described thus: Multitargeted bead mixture competition. It is filed as binding, T. brucei. Conditions: for fold change - vehicle control: protein TB11.03.0290 PROTEIN KINASE, PUTATIVE
[10] abbreviates: protein CZT00028390.1 PUTATIVE ADENYLATE CYCLASE […] (ESAG8), vehicle control = 1.
Setting [11] is: HeLa, protein MANBA (BETA-MANNOSIDASE PRECURSOR).

Chain of T. brucei lysate proteins (P23799 whole entry): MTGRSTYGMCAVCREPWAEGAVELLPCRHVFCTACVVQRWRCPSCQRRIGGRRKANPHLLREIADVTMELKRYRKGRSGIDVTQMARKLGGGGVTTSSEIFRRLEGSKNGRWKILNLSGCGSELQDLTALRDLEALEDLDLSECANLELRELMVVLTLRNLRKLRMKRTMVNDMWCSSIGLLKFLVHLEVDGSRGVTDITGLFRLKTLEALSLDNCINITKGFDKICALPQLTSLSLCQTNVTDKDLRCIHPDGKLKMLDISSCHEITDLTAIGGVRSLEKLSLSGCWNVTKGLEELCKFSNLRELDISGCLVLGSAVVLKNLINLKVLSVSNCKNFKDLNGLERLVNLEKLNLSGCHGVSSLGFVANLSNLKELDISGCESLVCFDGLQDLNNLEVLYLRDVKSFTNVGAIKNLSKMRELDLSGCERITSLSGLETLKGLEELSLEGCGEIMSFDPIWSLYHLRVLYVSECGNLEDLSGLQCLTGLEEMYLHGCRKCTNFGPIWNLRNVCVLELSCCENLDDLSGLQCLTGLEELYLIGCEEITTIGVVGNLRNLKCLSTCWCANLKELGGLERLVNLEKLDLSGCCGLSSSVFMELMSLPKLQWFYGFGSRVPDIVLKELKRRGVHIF
Chain of DHFR-TS (P07382 whole entry): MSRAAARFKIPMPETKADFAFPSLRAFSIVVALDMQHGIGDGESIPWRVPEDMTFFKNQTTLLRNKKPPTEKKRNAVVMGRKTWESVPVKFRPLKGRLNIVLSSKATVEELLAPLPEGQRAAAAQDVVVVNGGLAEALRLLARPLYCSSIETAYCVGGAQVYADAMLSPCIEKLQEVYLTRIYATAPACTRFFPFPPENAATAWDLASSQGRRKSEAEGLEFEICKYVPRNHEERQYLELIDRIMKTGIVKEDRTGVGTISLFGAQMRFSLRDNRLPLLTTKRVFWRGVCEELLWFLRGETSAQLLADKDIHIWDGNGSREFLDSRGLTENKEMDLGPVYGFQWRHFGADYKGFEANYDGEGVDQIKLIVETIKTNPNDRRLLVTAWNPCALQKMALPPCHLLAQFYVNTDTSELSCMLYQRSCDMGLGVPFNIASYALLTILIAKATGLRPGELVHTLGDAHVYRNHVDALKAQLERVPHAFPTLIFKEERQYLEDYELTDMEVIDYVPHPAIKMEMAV
T2 sequence (Q9H4A4 whole entry): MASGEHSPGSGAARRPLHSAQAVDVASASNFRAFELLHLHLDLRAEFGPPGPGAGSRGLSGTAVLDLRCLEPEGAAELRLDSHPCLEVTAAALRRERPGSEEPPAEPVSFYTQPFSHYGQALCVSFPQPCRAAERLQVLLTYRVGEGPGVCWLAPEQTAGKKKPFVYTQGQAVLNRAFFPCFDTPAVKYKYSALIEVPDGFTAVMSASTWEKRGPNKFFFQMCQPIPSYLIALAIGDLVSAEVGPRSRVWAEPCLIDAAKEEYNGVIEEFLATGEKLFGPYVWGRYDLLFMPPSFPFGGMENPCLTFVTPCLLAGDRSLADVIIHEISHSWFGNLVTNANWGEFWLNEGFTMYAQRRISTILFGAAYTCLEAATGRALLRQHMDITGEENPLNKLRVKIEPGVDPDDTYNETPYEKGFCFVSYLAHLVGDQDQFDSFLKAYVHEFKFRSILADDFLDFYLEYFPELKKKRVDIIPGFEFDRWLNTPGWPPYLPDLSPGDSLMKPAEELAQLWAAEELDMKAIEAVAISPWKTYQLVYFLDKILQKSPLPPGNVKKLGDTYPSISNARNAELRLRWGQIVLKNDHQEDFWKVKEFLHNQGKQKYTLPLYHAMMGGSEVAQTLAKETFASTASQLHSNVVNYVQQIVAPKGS
T1 sequence (Q15370 whole entry): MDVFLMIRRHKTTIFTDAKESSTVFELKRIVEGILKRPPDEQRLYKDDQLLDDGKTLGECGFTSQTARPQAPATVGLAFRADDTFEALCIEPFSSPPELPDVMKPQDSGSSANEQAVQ

`Nc1nc2c(c(=O)[nH]1)N(C=O)C(CNc1ccc(C(=O)N[C@@H](CCC(=O)O)C(=O)O)cc1)CN2` (some centres unmarked) [LEU, leucovorin]: the “fold change vs vehicle control” value in [1] (setting [10]) was found to be 1.17. For the same compound, the “fold changes relative to vehicle control” value came out at 0.9 in [2] (protein TCEB2, HeLa); 0.93 in assay [3] (protein RNPEP, HeLa); 1.01 in assay [4] (HeLa, protein MANBA (BETA-M[…])); 0.87 in assay [5] (HeLa, protein HGD). The fold change in the assay on TB927.8.6460 (protein TB927.8.6460 HYPOTHETICAL PROTEIN) stood at 0.84.
As to `Nc1nc2[nH]cc(CCc3ccc(C(=O)N[C@@H](CCC(=O)O)C(=O)O)cc3)c2c(=O)[nH]1` [PTX, pemetrexed], the “fold change vs vehicle control” value in assay [1] is listed as 1.01. The “fold changes relative to vehicle control” value in assay [2] came out at 1.02; in assay [3], 0.81; in assay [4], 0.71; in assay [5], 1.01. In addition, the fold change in the assay with TB927.8.6460 (protein TB927.8.6460 HY[…]) stood at 0.66.
For the compound `CCCCCCOc1ccc(Cc2cnc(N)nc2N)cc1` [compound 1], the “fold change - vehicle control” value in assay [1] was found to be 1.15; in the assay on TB11.03.0290, 0.91. The inhibition at 100 µM on DHFR-TS is less than 50%. For the same compound, the “fold changes relative to vehicle control” value in assay [6] is on record as 0.88; in assay [7], 0.97; in assay [8] it was 1.04; in [9], 1.16.
Take `CCCCCCOc1cccc(Cc2cnc(N)nc2N)c1` [compound 2]: the figures for the “fold change - vehicle control” value (in assay [1]; in the assay with TB11.03.0290) were 0.97 and 0.99, respectively. Also, the inhibition at 100 µM at DHFR-TS was less than 50%. Besides, the “fold changes relative to vehicle control” value is listed as 0.91 in assay [6], 1.23 in [7], 1.1 in [8] and 1.34 in [9].
Turning to `Nc1nc2cccc(-c3ccccc3)c2n1Cc1ccc(Cl)c(Cl)c1` [compound 3], the “fold change - vehicle control” value in assay [1] is 0.98; with TB11.03.0290, 1.06. Further, the inhibition at 100 µM on DHFR-TS is less than 50%. The “fold changes relative to vehicle control” value turned out to be 0.93 in assay [6], 0.91 in assay [7], 1.01 in [8] and 1.15 in assay [9]. Further, the “percentage of competition from bead binding” value in the assay on TB11.03.0290 (multitargeted bead mixture, free ligand 100 μM, T. brucei lysate, TB11.03.0290) was 10%; with TB927.8.6460 (multitargeted bead mixture, free ligand 100 μM, T. brucei lysate, TB927.8.6460) it was 15%.
Turning to `NCCOCCOCC(=O)Nc1nc2ncc(CNc3ccc(C(=O)NC(CCC(=O)O)C(=O)O)cc3)nc2c(=O)[nH]1` (centres unmarked) [compound 6], the “fold change vs vehicle control” value in assay [1] (setting [10]) is listed as 1.1. Also, the “fold changes relative to vehicle control” value in assay [2] (protein TCEB2, HeLa) came out at 1.43; in assay [3] (protein RNPEP, HeLa), 0.99; in assay [4] (setting [11]), 0.71; in assay [5] (HeLa, protein HGD), 1.01. For the same compound, the fold change in the assay on TB927.8.6460 (protein TB927.8.6460 HY[…]) amounted to 1.03.
Turning to `NCCCNc1ccc(C(=O)NC(CCC(=O)O)C(=O)O)cc1` (centres unmarked) [compound 7], in assay [1] (setting [10]), the “fold change vs vehicle control” value is recorded as 0.95. The “fold changes relative to vehicle control” value in [2] (protein TCEB2, HeLa) worked out at 1.1; in assay [3] (protein RNPEP, HeLa), 0.74; in assay [4] (setting [11]), 0.91; in [5] (HeLa, protein HGD), 0.8. Further, in the assay on TB927.8.6460 (protein TB927.8.6460 HY[…]), the fold change is 1.04.

Broadly, the inhibition is the percentage by which the read-out fell short of the control.
